pIC50: −log10 of the molar value. Like-named read-outs stand apart in the source and are kept apart here.
Key:
hERG ion channel = biological target: T1, hERG ion channel (Homo sapiens, UniProt Q12809); assay: hERG ion channel inhibition (Patchliner automated patch-clamp, CHO cells); format: cell-based; settings: whole-cell, room temperature, 6-point curve up to 100 µM
T1 construct: Chinese Hamster Ovary cell lines stably expressing the full-length ion channel; expressed in transfected cells
Procedure: The compounds were tested for inhibition of hERG ion channel. 6-Point concentration-response curves were generated on the Patchliner automated patch-clamp using serial dilutions from a maximum test concentration of 100 µM.
Compounds were solubilised to 33 mM in DMSO before dilution in HBPS to 100 µM. 6-Point concentration-response curves were generated using serial dilutions from the top test concentration. Electrophysiological recordings were made from a Chinese Hamster Ovary cell lines stably expressing the full-length ion channel. Single cell ionic currents were measured in whole-cell configuration at room temperature (21-23° C.) using a Patchliner (Nanion Technologies). The internal solution for hERG contained (mM): 120 KF, 20 KCl, 10 EGTA, 10 HEPES and was buffered to pH 7.3. The external solution (HEPES-buffered saline, HBPS) contained (mM): 138 NaCl, 4.5 KCl, 1.8 CaC12, 1.0 MgC12, 10 HEPES, 10 glucose, buffered to pH7.4. Cells were clamped at a holding potential of -80 mV before a depolarising step appropriate for the hERG channel. Currents were measured from the step and referenced to the holding current. Compounds were incubated for 90 seconds. Concentration-response curves were generated by cumulative addition of compound with concentrations low to high. In all cases, steady-state inhibition was achieved before the next concentration of compound was added.
IC50 values were obtained from a 4-parameter logistic fit of the concentration-response data: […]

human ENT1 = biological target: T2, human ENT1 (Homo sapiens, UniProt Q99808); assay: ENT1 binding assay (competition with Sahenta-DY647 on JAR cells); design: JAR cells expressing ENT1 were bought from ATCC® (HTB-144TM); host or cells: JAR cells (human choriocarcinoma line; whole cells); settings: competition with Sahenta-DY647 100 nM, 4° C.
T2 sequence (Q99808 1-456): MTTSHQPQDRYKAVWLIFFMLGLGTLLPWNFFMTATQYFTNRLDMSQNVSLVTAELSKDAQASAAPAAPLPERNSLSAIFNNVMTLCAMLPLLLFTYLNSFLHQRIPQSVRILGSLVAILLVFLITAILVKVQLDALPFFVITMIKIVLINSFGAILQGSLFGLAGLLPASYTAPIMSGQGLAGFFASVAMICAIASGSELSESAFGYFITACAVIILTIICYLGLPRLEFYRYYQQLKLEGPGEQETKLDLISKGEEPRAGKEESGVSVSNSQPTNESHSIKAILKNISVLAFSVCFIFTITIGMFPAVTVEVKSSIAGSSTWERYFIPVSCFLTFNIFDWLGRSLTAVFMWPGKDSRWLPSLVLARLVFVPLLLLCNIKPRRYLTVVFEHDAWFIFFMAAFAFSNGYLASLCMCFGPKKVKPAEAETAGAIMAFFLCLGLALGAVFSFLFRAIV
How it was run: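 Competition binding on intact JAR cells (50000 per well) in HBSS with 10 mM Hepes and 0.1% BSA. Cells pre-incubated with compound 30 min at 4 °C, then Sahenta-DY647 added at its IC90 (100 nM) for another 30 min at 4 °C; after washing, fluorescence read at Ex 630/Em 670 nm.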

[1] = tested on: stimulated primary human T cells; assay: T cell proliferation assay (rescue of proliferation in presence of ATP, CFSE dilution); format: cell-based; settings: 100 uM ATP
Procedure: The aim of this study was to determine the potency of equilibrative nucleoside transporter 1 (ENT1) inhibitors to rescue proliferation by stimulated primary human T cells incubated in the presence of 100 uM Adenosine triphosphate (ATP), in baseline conditions (condition A) or in the presence of various proteins known to bind small molecules (condition B). Condition A: X-VIVO15 Condition B: X-VIVO15, 2% Human Serum Albumine (HSA) and 0,1% α-1-Acid Glycoprotein (AAG)
Cryopreserved purified human CD3+ T cells were thawed and washed twice with RPMI1640 medium, UltraGlutamine containing 10% hiFBS.
Cells were suspended in PBS containing 10% hiFBS. Cells were stained with CFSE by adding 2 µM solution in PBS, to get a final 1 µM CFSE solution. Cells were incubated while rotating for 5 minutes. Reaction was stopped by adding PBS with 10% FBS and cells were centrifuged for 5 minutes at 1500 rpm.
Cells were resuspended at 1.6 ×10^6 cells/mL, either in X-VIVO15 medium or in 4% Human Serum Albumin and 0,2% α-1-Acid Glycoprotein. 50 µL of cell suspension (8×10^4 T cells) was added to wells of sterile round-bottom 96-well plates. Cells were activated by adding 50 µL of anti-CD3 anti-CD28 coated microbeads, suspended either in XVIVO-15 medium or in 4% HSA and 0,2% α-1-Acid Glycoprotein, at a ratio of one microbead per two cells. Serial dilutions of the ENT1 inhibitors were prepared in X-VIVO15 from 10 mM stock solutions in DMSO, and 50 µL was added to the wells. ATP powder was diluted in X-VIVO15, and 50 µL of this compound was added to the wells to reach a final assay concentration of 100 µM. Final volume of 200 µL. The experiments were also performed in 384 well plates - all volumes reduced by a factor of 4 (12,5 µL) with a final volume of 50 µL. Experiments were performed in duplicate. The cells were placed in a 37° C. humidified tissue culture incubator with 5% CO2 for 72 hours for 96 well plates, 96 hours for 384 well plates. After 72 or 96 hours, proliferation was measured determined by CFSE dilution via flow cytometry.

human T cells = assay: T cell stimulation assay (Example III, FIG. 1); format: cell-based; settings: ATP 100 µM
Procedure: FIG. 1A depicts a graph of log concentration (M) versus percent proliferation. Purified human T cells were activated with anti-CD3/CD28 dynabeads in the presence of ATP (100 µM) as a source of adenosine for 96 h and then proliferation was assessed by CFSE dilution.
FIG. 1B depicts a graph of log concentration of ENT1 inhibitor (M) versus percent proliferation. Experiment performed as in FIG. A with the addition of HSA and AAG to the culture medium (final concentration 2 and 0.1%, respectively).
Peripheral blood mononuclear cells (PBMCs) were first isolated via centrifugation of fresh whole blood over Lymphoprep using SepMate-50 tubes (both from […] Technologies) according to the manufacturer’s instructions. Human T cells were then isolated from the PBMCs using the EasySep Human T cell Isolation Kit ([…] Technologies) according to the manufacturer’s instructions and the cells were cryopreserved in FBS with 10% DMSO until required.
Cryopreserved human T cells were thawed on the day of the experiment and resuspended in PBS with 10% FBS at approximately 1 × 10^7 cells/ml. This cell suspension was diluted 1:1 with 2 µM CFSE solution (ThermoFisher Scientific) in PBS and incubated for 5 minutes at room temperature. The labelling reaction was quenched by further addition of PBS with 10% FBS, and then the cells were washed into X-VIVO15 medium (Lonza) for use in the T cell assay.
CFSE-labelled T cells were plated at 2 × 10^4 cells per well in 384 well plates in the presence of ATP (100 µM, Sigma-Aldrich) as a source of adenosine. Activation was driven by the addition of Dynabeads Human T-Activator CD3/CD28 (ThermoFisher Scientific) at a ratio of 0,5 beads per T cell. ENT1 inhibitor molecules including the reference molecule dilazep (Tocris Bioscience) were added, the volume of the wells was adjusted to 50 µl with X-VIVO15 medium and the plates were cultured in a humidified incubator for 96 h at 37° C. with 5% CO2. In some experiments the culture was supplemented with human serum albumin (HSA) and alpha-1-acid glycoprotein (AAG, both Sigma-Aldrich) at final concentrations of 2 and 0,1%, respectively.
Analysis of proliferation via CSFE dilution was performed by flow cytometry using a BD LSR Fortessa with data analysis on FlowJo (BD Biosciences).

[2] = Condition A: X-VIVO15, read-out: T Cell proliferation (Condition A) IC50
[3] = Condition B: X-VIVO15, 2% HSA and 0,1% AAG, read-out: (2) T Cell proliferation (Condition B) IC50

T1 sequence (Q12809 whole entry): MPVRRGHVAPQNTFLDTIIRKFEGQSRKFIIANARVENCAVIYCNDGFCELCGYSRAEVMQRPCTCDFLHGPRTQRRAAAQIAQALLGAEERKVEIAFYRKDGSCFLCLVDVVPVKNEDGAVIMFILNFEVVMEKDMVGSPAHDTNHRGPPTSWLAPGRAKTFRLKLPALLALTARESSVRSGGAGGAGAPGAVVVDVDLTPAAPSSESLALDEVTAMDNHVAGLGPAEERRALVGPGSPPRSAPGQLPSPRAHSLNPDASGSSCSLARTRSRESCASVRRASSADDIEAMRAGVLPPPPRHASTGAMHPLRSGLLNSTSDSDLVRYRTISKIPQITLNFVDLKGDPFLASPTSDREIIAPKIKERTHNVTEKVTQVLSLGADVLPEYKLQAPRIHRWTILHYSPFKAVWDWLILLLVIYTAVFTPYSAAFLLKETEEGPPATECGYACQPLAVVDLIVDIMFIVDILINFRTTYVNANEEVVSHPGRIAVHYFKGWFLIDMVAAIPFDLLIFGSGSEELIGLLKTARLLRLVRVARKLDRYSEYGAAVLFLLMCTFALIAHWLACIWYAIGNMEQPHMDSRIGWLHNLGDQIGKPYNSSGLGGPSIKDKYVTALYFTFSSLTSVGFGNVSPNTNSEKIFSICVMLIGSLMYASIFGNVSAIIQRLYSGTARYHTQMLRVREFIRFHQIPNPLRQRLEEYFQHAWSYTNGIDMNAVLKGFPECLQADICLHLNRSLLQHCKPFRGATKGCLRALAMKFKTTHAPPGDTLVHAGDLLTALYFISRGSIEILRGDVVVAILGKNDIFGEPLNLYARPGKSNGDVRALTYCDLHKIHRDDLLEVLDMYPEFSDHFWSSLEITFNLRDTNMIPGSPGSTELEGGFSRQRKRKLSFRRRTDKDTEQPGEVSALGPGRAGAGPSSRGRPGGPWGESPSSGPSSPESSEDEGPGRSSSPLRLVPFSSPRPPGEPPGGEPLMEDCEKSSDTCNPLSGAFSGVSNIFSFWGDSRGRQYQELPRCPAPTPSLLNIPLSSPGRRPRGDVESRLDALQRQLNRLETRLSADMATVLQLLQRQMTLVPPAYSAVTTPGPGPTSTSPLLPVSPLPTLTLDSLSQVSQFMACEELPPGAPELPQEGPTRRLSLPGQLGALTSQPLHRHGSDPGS

pIC50 (human ENT1) | SMILES | pIC50 (hERG ion channel) | pIC50 [1, 2] | pIC50 [1, 3] | pIC50 (human T cells; anti-CD3/CD28 dynabeads, 96 h (FIG. 1A), read-out: IC50 of restoration of T cell proliferation) | pIC50 (human T cells; with HSA 2% and AAG 0,1% (FIG. 1B), read-out: IC50 of restoration of T cell proliferation under high protein binding conditions)
7.70 to 9.00 | COc1cc2cc(c1OC)OCCCC(OC(=O)c1ccccn1)CCN1CCCN(CCCOC2=O)CC1 (stereo not shown) [Compound 52, 74,75-dimethoxy-6-oxo-5,8-dioxa-1(1,4)-diazepana-7(1,3)-benzenacyclotetradecaphane-12-yl picolinate] | 5.57 | – | – | – | –
7.70 to 9.00 | COc1cc2cc(c1OC)OCCCC(OC(=O)c1cnccn1)CCN1CCCN(CCCOC2=O)CC1 (stereo not shown) [Compound 54, 74,75-dimethoxy-6-oxo-5,8-dioxa-1(1,4)-diazepana-7(1,3)-benzenacyclotetradecaphane-12-yl pyrazine-2-carboxylate] | – | 6.30 to 7.70 | < 6.30 | – | –
7.70 to 9.00 | COc1cc2cc(c1OC)OCCCC(OC(=O)c1c[nH]nn1)CCN1CCCN(CCCOC2=O)CC1 (stereo not shown) [Compound 58, 74,75-dimethoxy-6-oxo-5,8-dioxa-1(1,4)-diazepana-7(1,3)-benzenacyclotetradecaphane-12-yl 1 H-1,2,3-triazole-4-carboxylate] | – | 7.70 to 9.00 | < 6.30 | – | –
7.70 to 9.00 | COc1cc2cc(c1OC)OCCCC(OC(C)=O)CCN1CCCN(CCCOC2=O)CC1 (stereo not shown) [Compound 59, 74,75-dimethoxy-6-oxo-5,8-dioxa-1(1,4)-diazepana-7(1,3)-benzenacyclotetradecaphane-12-yl acetate] | – | 7.70 to 9.00 | < 6.30 | – | –
7.70 to 9.00 | COc1cc2cc(c1OC)OCCCC(OC(=O)C1CC1)CCN1CCCN(CCCOC2=O)CC1 (stereo not shown) [Compound 60, 74,75-dimethoxy-6-oxo-5,8-dioxa-1(1,4)-diazepana-7(1,3)-benzenacyclotetradecaphane-12-yl cyclopropanecarboxylate] | – | 7.70 to 9.00 | < 6.30 | – | –
7.70 to 9.00 | COCCC(=O)OC1CCCOc2cc(cc(OC)c2OC)C(=O)OCCCN2CCCN(CC1)CC2 (stereo not shown) [Compound 93, 74,75-dimethoxy-6-oxo-5,8-dioxa-1(1,4)-diazepana-7(1,3)-benzenacyclotetradecaphane-12-yl 3-methoxypropanoate] | – | 7.70 to 9.00 | < 6.30 | – | –
7.70 to 9.00 | COc1cc2cc(c1OC)OCCCC(OC(=O)CCn1cccn1)CCN1CCCN(CCCOC2=O)CC1 (stereo not shown) [Compound 94, 74,75-dimethoxy-6-oxo-5,8-dioxa-1 (1,4)-diazepana-7(1,3)-benzenacyclotetradecaphane-12-yl 3-(1H-pyrazol-1-yl)propanoate] | – | 7.70 to 9.00 | < 6.30 | – | –
7.70 to 9.00 | COc1cc2cc(c1OC)OCCCC(OC(=O)CCCC#N)CCN1CCCN(CCCOC2=O)CC1 (stereo not shown) [Compound 96, 74,75-dimethoxy-6-oxo-5,8-dioxa-1 (1,4)-diazepana-7(1,3)-benzenacyclotetradecaphane-12-yl 4-cyanobutanoate] | – | 7.70 to 9.00 | < 6.30 | – | –
7.70 to 9.00 | COc1cc2cc(c1OC)OCCCC(OC(=O)CCCNC(C)=O)CCN1CCCN(CCCOC2=O)CC1 (stereo not shown) [Compound 97, 74,75-dimethoxy-6-oxo-5,8-dioxa-1(1,4)-diazepana-7(1,3)-benzenacyclotetradecaphane-12-yl 4-acetamidobutanoate] | – | > 9.00 | < 6.30 | – | –
7.70 to 9.00 | COc1cc2cc(c1OC)OCCCC(OC(=O)CCC(=O)N(C)C)CCN1CCCN(CCCOC2=O)CC1 (stereo not shown) [Compound 99, 74,75-dimethoxy-6-oxo-5,8-dioxa-1(1,4)-diazepana-7(1,3)-benzenacyclotetradecaphane-12-yl 4-(dimethylamino)-4-oxobutanoate] | – | > 9.00 | 6.30 to 7.70 | – | –
7.70 to 9.00 | COc1cc2cc(c1OC)OCCCC(OC(=O)CCNC(C)=O)CCN1CCCN(CCCOC2=O)CC1 (stereo not shown) [Compound 100, 74,75-dimethoxy-6-oxo-5,8-dioxa-1(1,4)-diazepana-7(1,3)-benzenacyclotetradecaphane-12-yl 3-acetamidopropanoate] | – | 7.70 to 9.00 | < 6.30 | – | –
– | COc1cc(C(=O)OCCCN2CCCN(CCCOC(=O)c3cc(OC)c(OC)c(OC)c3)CC2)cc(OC)c1OC [Dilazep, dilazep, reference compound] | 6.05 | 7.70 to 9.00 | 6.30 to 7.70 | 7.15 | 6.47

Reference: patent US20230203058A1, “MACROCYCLIC DIAMINE DERIVATIVES AS ENT INHIBITORS FOR THE TREATMENT OF CANCERS, AND COMBINATION THEREOF WITH ADENOSINE RECEPTOR ANTAGONISTS” (ITEOS BELGIUM SA, priority 2020, published 2023)
